These results are taken from ChEMBL document CHEMBL1125942, “A potent, simple derivative of an analog of the CC-1065 alkylation subunit” (Bioorg Med Chem Lett, 1991).

The test system of experiment [1] is L1210. The experiment is described as follows: Concentration required for 50% cell growth inhibition against L1210 mouse lymphocytic leukemia. Type of experiment: functional, cell-based.
In experiment [2] the test system is L1210. The experiment is described as follows: Compound was tested for relative inhibitory concentration required for 50% cell growth inhibition against L1210 mouse lymphocytic leukemia to untreated controls. The class given is functional.

≈ marks a conversion by molar mass, not a printed value.

As a reminder, the IC50 is the concentration at which inhibition is half-maximal. A lower IC50 goes with greater potency. Compound `COc1c(O)c2c(c3cc(C(=O)N4CCc5c4c(O)c(OC)c4[nH]c(C(=O)N6C[C@H]7C[C@@]78C6=CC(=O)c6[nH]cc(C)c68)cc54)[nH]c13)CCN2C(N)=O` [(+)-CC-1065] yielded a half-inhibitory concentration (IC50) with L1210 [1] of 0.01 ng/mL (≈ 0.0142 nM). Further, the “Relative IC50” value in the experiment with L1210 [2] was determined as 100.

`Cl.NNC(=O)N1CC(CCl)c2c1cc(O)c1ccccc21` (racemic) returned an IC50 in the experiment on L1210 [1] of 1 ng/mL. Moreover, the “Relative IC50” value in the experiment with L1210 [2] was found to be 1.

`CC(C)(C)OC(=O)N1CC2CC23C1=CC(=O)c1ccccc13` (racemic) showed a concentration for half-maximal inhibition (IC50) in the experiment with L1210 [1] of 50 ng/mL (≈ 168 nM). The “Relative IC50” value in the experiment with L1210 [2] is 0.02.

In the experiment on L1210 [1], `OC1=CC2=NCC3CC23c2ccccc21` (racemic) showed an IC50 of 2000 ng/mL (≈ 10100 nM). Further, the “Relative IC50” value with L1210 [2] is 0.0005.

In the experiment on L1210 [1], `CC(C)(C)OC(=O)NNC(=O)N1CC(CCl)c2c1cc(O)c1ccccc21` (racemic) showed an IC50 of 100 ng/mL (≈ 255 nM). Also, the “Relative IC50” value in the experiment with L1210 [2] was found to be 0.01.
